Results reported in ChEMBL document CHEMBL1201862, “PubChem BioAssay data set” (2004).
Calls of active or inactive are those of the source. Cut-off read from the data, not from the text of the source, for most assays here: actives have a measured EC50 and inactives only a lower limit.

Legend:
HEK293 [1] = experiment: cells; settings: Homo sapiens
HEK293 [2] = experiment: cells; settings: Homo sapiens; remark: listed apart in the source
BJ [3] = experiment: cytotoxicity toward Ras-transformed BJeLR fibroblasts, dose response, cell-based, alamar blue fluorescence, cherrypicked samples (AID 2631); assay type: functional; settings: Homo sapiens;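 note: confirmatory dose-response assay in RAS-dependent BJ fibroblasts engineered with TERT, LT and ST, with cytotoxicity read by fluorescence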
[4] = cytotoxicity toward DRD oncogenic fibroblasts, dose response, cell-based, non-viral oncogenic, luminescence (AID 1934); assay type: functional; settings: Homo sapiens
cells [5] = assay type: functional, cell-based
cells [6] = assay type: functional, cell-based; remark: listed apart in the source
INS1 = experiment: beta cell apoptosis inhibitors, cytokine rescue, dose response, luminescence, retest (AID 449756); assay type: functional, cell-based; settings: Rattus norvegicus;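 note: cell death triggered by IL-1 beta plus TNF-alpha plus IFN-gamma mixture; protective hits raise ATP signal compared with cytokine alone wells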
BJ [7] = experiment: cytotoxicity toward BJ-TERT-LT-ST fibroblasts, dose response, cell-based, RAS-independent, luminescence (AID 1935); assay type: functional; settings: Homo sapiens;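 note: BJ fibroblasts immortalized with TERT plus LT and ST oncogenes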
Exodeoxyribonuclease V = Exodeoxyribonuclease V (Escherichia coli (strain K12), UniProt P04993+P07648+P08394); experiment: E. coli RecBCD inhibitors, dose response, counter-screen for AddAB inhibitor project, absorbance, V66 E. coli, mutant T4 phage (AID 492957); assay type: functional, cell-based, Escherichia coli str. K-12 substr. MG1655
BJ [8] = experiment: cytotoxicity toward BJ-TERT fibroblasts, dose response, cell-based, RAS-independent, luminescence (AID 1933); assay type: functional; settings: Homo sapiens
[9] = Counterscreen for AddAB inhibitors: absorbance-based bacterial cell-based high throughput dose response assay for inhibitors of bacterial viability. [Related pubchem assays (depositor defined):AID435030, AID449728, AID449731, AID488942, AID488955, AID488956]; assay type: functional
[10] = microbe, parasite or virus in culture; assay type: functional; settings: Mycobacterium tuberculosis
BJ [11] = experiment: cells; assay type: functional, cell-based; settings: Homo sapiens
[12] = target: T1, Alkaline phosphatase, tissue-nonspecific isozyme (Homo sapiens, UniProt P05186); experiment: human TNAP enzyme inhibitors, SAR follow-up, biochemical, luminescent, dose response (AID 1056)
T1 sequence (P05186 whole entry): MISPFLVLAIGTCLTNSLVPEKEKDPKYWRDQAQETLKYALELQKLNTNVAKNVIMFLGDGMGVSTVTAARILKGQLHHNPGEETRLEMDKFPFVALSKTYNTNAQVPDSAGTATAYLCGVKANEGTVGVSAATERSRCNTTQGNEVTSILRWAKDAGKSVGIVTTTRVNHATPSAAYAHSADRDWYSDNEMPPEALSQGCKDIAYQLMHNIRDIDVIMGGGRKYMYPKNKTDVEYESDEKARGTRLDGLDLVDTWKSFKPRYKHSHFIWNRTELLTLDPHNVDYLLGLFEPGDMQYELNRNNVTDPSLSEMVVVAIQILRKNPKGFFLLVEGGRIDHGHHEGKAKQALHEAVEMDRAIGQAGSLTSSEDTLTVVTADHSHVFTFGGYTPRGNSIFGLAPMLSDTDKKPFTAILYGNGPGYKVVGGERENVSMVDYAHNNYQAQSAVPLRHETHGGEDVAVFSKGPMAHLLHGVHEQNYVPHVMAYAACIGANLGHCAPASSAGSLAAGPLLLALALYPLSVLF

[13] = target: Alkaline phosphatase, placental type (Homo sapiens, UniProt P05187); experiment: PLAP enzyme inhibitors, confirmation, biochemical, luminescence (AID 1512); assay type: functional
Large T antigen = Large T antigen (Simian virus 40, UniProt P03070); assay type: functional, Betapolyomavirus macacae;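 note: Confirmatory-stage PubChem screen for compounds that inhibit SV40 T antigen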
H4 = experiment: Luminescence Cell-Based Dose Response HTS to Identify Activators of 5'UTR Stem-Loop Driven Prion Protein mRNA Translation in H4 Neuroglioblastoma Cells. [Related pubchem assays: 1829 (Project Summary), 1814 (Primary HTS)]; assay type: functional; settings: Homo sapiens
Streptococcus = experiment: Group A Streptococcus viability loss, dose response, counter-screen for streptokinase expression inhibitor project, luminescence, BacTiterGlo (AID 1915); assay type: functional, organism-based;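 note: potency for reduction of bacterial viability or growth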
[14] = inhibitors of intracellular T. cruzi replication, confirmation, NIH3T3 host cells, beta-gal luminescence (AID 2044); assay type: functional, cell-based;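 note: intracellular parasites grown in NIH/3T3 mouse fibroblasts as host cells; luminescent beta-galactosidase reporter signal from transgenic T. cruzi replicating inside host cells; inhibitors lower the luminescence signal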
[15] = system: Streptococcus sp. 'group A'; experiment: growth inhibition of control SK(-) GAS strain, dose response, counter-screen for streptokinase expression inhibitor project, luminescence, kanamycin, BacTiterGlo, confirmation (AID 1900); assay type: functional, organism-based
[16] = Luminescence Cell-Based Dose Confirmation HTS to Identify Activators of 5'UTR Stem-Loop Driven Alpha-Synuclein mRNA Translation in H4 Neuroglioblastoma Cells. [Related pubchem assays: 1829 (Project Summary), 1814 (Primary HTS)]; assay type: functional
[17] = Luminescence Cell-Based Dose Response HTS to Identify Activators of Luciferase Translation or Activity in H4 […] Cells. [Related pubchem assays: 1829 (Project Summary), 1814 (Primary HTS)]; assay type: functional
[18] = cytotoxicity toward NIH3T3 fibroblasts, dose response, counter-screen, cell-based, ATP luminescence, mouse fibroblasts (AID 2010); assay type: functional;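 note: cells exposed to compound for about 90 hours before reading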

Chain of Exodeoxyribonuclease V (P04993 whole entry): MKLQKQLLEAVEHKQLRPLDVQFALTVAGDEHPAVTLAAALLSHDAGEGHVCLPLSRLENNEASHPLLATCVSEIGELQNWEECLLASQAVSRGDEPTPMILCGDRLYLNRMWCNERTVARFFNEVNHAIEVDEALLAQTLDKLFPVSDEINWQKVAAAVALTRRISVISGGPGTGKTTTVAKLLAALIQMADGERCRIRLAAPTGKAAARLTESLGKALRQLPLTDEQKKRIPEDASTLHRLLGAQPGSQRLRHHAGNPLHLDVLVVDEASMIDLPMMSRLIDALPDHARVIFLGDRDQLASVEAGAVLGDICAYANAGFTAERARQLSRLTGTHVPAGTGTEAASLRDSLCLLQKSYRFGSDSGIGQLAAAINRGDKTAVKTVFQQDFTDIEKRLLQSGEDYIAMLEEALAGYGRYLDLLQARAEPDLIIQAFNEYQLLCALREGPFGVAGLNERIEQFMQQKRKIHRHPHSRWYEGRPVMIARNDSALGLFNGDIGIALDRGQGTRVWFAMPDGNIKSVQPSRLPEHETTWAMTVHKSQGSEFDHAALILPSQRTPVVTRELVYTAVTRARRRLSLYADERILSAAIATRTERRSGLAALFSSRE
Chain of Exodeoxyribonuclease V (P07648 whole entry): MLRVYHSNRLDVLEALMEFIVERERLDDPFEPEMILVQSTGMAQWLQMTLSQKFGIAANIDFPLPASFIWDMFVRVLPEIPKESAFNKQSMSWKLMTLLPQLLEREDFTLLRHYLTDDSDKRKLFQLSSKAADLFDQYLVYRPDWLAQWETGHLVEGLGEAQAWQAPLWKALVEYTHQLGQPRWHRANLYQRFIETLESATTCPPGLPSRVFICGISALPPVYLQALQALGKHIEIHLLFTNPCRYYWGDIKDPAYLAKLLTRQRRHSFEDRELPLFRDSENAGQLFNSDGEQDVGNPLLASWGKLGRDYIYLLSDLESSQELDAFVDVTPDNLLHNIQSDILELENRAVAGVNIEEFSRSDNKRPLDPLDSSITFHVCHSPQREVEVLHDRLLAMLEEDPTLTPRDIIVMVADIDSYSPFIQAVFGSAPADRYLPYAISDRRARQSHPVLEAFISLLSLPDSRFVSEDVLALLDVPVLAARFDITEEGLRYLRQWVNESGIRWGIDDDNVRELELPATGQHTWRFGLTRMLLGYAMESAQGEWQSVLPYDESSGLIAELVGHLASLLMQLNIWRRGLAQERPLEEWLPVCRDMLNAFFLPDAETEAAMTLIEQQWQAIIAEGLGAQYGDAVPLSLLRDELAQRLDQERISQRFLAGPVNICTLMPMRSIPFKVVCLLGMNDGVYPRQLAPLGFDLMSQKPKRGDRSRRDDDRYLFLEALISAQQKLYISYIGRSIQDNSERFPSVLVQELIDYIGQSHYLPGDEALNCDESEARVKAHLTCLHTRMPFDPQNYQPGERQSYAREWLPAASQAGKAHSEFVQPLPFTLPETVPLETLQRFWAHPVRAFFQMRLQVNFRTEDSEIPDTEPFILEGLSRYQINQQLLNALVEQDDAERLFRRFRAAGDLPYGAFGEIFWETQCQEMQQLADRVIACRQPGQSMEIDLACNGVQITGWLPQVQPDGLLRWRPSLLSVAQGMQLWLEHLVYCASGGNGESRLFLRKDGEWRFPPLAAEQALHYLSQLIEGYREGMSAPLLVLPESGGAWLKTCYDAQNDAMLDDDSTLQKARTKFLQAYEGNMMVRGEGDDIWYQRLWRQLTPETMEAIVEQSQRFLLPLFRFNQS
Chain of Exodeoxyribonuclease V (P08394 whole entry): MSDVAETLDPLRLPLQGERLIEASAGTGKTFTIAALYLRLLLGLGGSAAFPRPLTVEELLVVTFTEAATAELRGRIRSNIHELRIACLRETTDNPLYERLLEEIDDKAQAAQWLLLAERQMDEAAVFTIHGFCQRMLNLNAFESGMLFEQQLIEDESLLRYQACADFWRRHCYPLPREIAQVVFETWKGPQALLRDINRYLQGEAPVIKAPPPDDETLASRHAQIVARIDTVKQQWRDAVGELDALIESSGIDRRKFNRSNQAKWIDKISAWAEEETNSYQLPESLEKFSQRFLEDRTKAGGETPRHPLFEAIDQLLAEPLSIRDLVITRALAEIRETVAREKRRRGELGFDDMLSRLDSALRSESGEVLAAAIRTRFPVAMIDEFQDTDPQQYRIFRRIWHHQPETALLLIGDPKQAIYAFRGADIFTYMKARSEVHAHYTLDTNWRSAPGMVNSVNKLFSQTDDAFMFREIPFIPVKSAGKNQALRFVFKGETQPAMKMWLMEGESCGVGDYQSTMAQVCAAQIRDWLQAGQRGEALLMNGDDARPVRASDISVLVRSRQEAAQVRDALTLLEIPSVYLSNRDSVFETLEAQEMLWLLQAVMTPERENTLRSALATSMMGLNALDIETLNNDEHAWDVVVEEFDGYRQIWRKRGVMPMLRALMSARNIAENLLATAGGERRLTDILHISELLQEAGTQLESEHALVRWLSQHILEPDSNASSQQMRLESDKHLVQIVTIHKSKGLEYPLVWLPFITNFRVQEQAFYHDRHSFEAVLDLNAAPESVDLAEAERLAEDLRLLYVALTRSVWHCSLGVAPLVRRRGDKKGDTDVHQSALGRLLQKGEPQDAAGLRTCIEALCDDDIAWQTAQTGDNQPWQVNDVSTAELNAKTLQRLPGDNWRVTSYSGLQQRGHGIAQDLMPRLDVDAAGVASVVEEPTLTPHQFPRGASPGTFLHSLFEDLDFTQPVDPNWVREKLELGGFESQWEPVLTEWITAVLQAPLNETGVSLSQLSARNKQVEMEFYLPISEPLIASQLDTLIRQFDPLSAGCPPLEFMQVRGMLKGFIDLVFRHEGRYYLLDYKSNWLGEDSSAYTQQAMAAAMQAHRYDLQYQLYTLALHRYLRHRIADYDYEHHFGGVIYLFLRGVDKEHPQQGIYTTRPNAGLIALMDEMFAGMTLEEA
Chain of Alkaline phosphatase, placental type (P05187 whole entry): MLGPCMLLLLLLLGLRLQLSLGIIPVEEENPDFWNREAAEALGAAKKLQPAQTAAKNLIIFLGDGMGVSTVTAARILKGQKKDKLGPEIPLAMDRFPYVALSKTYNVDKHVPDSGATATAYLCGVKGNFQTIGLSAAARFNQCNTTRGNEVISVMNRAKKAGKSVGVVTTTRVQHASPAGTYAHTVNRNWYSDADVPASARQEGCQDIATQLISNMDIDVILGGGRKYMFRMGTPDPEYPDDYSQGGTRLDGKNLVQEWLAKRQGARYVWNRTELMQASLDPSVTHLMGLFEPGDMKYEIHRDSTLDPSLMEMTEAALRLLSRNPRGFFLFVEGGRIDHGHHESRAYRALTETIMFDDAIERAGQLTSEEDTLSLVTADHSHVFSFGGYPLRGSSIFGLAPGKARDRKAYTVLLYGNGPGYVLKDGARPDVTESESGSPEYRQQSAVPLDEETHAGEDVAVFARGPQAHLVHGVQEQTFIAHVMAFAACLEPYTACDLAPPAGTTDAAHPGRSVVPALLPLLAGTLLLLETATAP
Chain of Large T antigen (P03070 whole entry): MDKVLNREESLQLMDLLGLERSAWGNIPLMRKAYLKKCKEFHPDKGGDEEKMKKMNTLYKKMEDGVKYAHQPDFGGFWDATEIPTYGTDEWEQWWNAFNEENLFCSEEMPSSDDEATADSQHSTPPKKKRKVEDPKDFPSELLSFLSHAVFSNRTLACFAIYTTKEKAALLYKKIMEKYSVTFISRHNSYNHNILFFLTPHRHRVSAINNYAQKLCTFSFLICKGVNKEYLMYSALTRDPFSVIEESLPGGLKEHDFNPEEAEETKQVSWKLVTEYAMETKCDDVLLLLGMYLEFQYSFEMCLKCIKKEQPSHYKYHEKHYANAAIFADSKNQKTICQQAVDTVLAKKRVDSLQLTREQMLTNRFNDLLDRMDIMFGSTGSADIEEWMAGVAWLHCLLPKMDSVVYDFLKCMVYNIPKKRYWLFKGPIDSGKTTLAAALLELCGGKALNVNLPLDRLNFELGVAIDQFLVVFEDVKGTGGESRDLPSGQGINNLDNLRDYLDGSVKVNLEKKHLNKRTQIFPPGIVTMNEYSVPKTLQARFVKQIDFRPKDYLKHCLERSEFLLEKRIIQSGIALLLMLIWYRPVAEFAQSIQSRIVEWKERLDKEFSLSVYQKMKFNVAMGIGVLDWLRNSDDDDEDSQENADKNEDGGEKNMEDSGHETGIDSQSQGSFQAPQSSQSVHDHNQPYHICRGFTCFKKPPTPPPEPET

## CC(C)Cc1cc(-c2ccco2)c(C#N)c(N)n1
HEK293 [1]
  EC50: > 59.6 µM (inactive)
HEK293 [2]
  EC50: > 59.6 µM (inactive)

## COc1ccc(N/N=C(/N=Nc2nc(C)cc(O)n2)c2ccccc2)cc1
BJ [3]
  EC50: 0.615 µM (active)
[4]
  EC50: 5.72 µM (active)
Cells [5]
  EC50: 3.44 µM (active)
Cells [6]
  EC50: 5.67 µM (active)
INS1
  AC50: < 0.195 µM (active)
BJ [7]
  EC50: 4.21 µM (active)
Exodeoxyribonuclease V
  IC50: > 119 µM (inactive)
BJ [8]
  EC50: 4.09 µM (active)
[9]
  IC50: > 119 µM (inactive)
[10]
  CC50: 6.39 µM (active)
BJ [11]
  EC50: 3.68 µM (active)

## Cn1c(SCC(=O)c2ccc(O)c(O)c2)nnc1-c1cccs1
[12]
  IC50: > 100 µM (inactive)
[13]
  IC50: 4.9 µM (active)
Large T antigen
  IC50: > 100 µM (active)

## C=CCn1c(SCC(=O)c2ccc(O)c(O)c2)nnc1-c1ccc(C(C)(C)C)cc1
[12]
  IC50: > 100 µM (inactive)
[13]
  IC50: 97.5 µM (active)

## CCOC(=O)C1=C(C)N=C2C(=C(O)c3ccccc32)C1c1ccc([N+](=O)[O-])o1 (configuration not stated)
H4
  EC50: > 120 µM (not active)
Streptococcus
  EC50: 29.9 µM (active)
[14]
  EC50: 1.43 µM (active)
[15]
  EC50: 2.81 µM (active)
[16]
  EC50: > 120 µM (not active)
[17]
  EC50: > 120 µM (not active)
Exodeoxyribonuclease V
  IC50: > 119 µM (inactive)
[9]
  IC50: > 119 µM (inactive)
[18]
  EC50: > 60 µM (not active)
